Assay results reported in patent US20060154927A1 (priority 2003, published 2006).
Like-named read-outs stand apart in the source and are kept apart here.

System: Pyricularia oryzae
Assay type: in vivo
Conditions: individual active compound, rice seedlings cultivar Tai-Nong 67, protective spray, evaluated 6 days after inoculation

| Compound | Efficacy in % of the untreated control (1 ppm in the spray liquor) [%] | Efficacy in % of the untreated control (0.25 ppm in the spray liquor) [%] | Efficacy in % of the untreated control (4 ppm in the spray liquor) [%] |
| --- | --- | --- | --- |
| CC1CCN(c2c(-c3c(F)cccc3Cl)c(Cl)nc3ncnn23)CC1 [A] | 11 | – | – |
| C[C@H](Nc1c(-c2c(F)cc(F)cc2F)c(Cl)nc2ncnn12)C(F)(F)F [B] | 22 | – | – |
| CC1CCN(c2c(-c3c(F)cc(F)cc3F)c(Cl)nc3ncnn23)CC1 [I, 5-chloro-7-(4-methylpiperidin-1-yl)-6-(2,4,6-trifluorophenyl)-[1,2,4]triazolo[1,5-a]pyrimidine] | 11 | – | – |
| COc1ccc(C(=CC(=O)N2CCOCC2)c2ccc(Cl)cc2)cc1OC [IIa, 3-(4-chlorophenyl)-3-(3,4-dimethoxyphenyl)-1-morpholin-4-ylpropenone] | – | 0 | 0 |
| COc1ccc(C(=CC(=O)N2CCOCC2)c2ccc(F)cc2)cc1OC [IIb, 3-(4-fluorophenyl)-3-(3,4-dimethoxyphenyl)-1-morpholin-4-ylpropenone] | – | 0 | 0 |
